These results are taken from BindingDB's records for doi:10.1021/jm200999f (Corning, 2011).

For the test, the target named is G-protein coupled receptor 35 (Homo sapiens, UniProt Q9HC97). Put plainly: Antagonist activity at GPR35 in human HT-29 cells assessed as inhibition of zaprinast-induced DMR by dynamic mass redistribution assay.
Sequence of G-protein coupled receptor 35 (Q9HC97 whole entry): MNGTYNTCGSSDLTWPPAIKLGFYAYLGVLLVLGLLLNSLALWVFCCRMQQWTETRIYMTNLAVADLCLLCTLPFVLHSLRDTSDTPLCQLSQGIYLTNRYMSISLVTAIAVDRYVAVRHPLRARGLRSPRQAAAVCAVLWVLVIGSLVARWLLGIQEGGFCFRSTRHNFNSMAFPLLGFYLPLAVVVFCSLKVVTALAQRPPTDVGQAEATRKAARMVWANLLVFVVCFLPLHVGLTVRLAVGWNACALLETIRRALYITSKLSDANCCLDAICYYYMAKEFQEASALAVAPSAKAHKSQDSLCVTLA

As to `CCCOc1ccccc1-c1nc2nn[nH]c2c(=O)[nH]1` [5-(2-propoxyphenyl)-2H,3H,7H-[1,2,3]triazolo[4,5-d]pyrimidin-7-one], the IC50 (usually the concentration that inhibits the measured activity by half) was determined as 10.5 µM.
